The compounds below were run on MOLM-14 F691L (endogenous FLT3 ITD and transfected FLT3 F691L) (assay: MOLM-14 F691L cell proliferation assay (CellTiter-Glo)). Conditions: Homo sapiens, MOLM-14, 72 h; 3 d growth, GMean.
Format: cell-based
In short: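 MOLM-14 cells (FLT3 ITD) carrying D835Y or F691L, 1×10^4 cells/well, eight 1:3 dilutions from 1 μM final, 0.2% DMSO, 3 days at 37 °C, 5% CO2. Viability by CellTiter-Glo luminescence (ATP content); IC50 from concentration-response.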

IC50, 0.0001 to 10 µM:
COc1ncc(NC(=O)Cc2ccc(-c3cnc4[nH]c(C#CC(C)(C)O)cc4c3)cc2)cc1C(F)(F)F [Compound P-0214, 2-(4-(2-(3-hydroxy-3-methylbut-1-yn-1-yl)-1H-pyrrolo[2,3-b]pyridin-5-yl)phenyl)-N-(6-methoxy-5-(trifluoromethyl)pyridin-3-yl)acetamide]
COc1ncc(NC(=O)Cc2ccc(-c3cnc4[nH]c(C#CC(C)(C)C)cc4c3)cc2)cc1C(F)(F)F [Compound P-0219, 2-[4-[2-(3,3-dimethylbut-1-ynyl)-1H-pyrrolo[2,3-b]pyridin-5-yl]phenyl]-N-[6-methoxy-5-(trifluoromethyl)-3-pyridyl]acetamide]
COc1ncc(NC(=O)Cc2ccc(-c3cnc(Nc4cn[nH]c4C)nc3)cc2)cc1C(F)(F)F [Compound P-0221, N-[6-methoxy-5-(trifluoromethyl)-3-pyridyl]-2-[4-[2-[(5-methyl-1H-pyrazol-4-yl)amino]pyrimidin-5-yl]phenyl]acetamide]
COCCn1cc(Nc2ncc(-c3ccc(CC(=O)Nc4cc(C(F)(F)F)ccn4)cc3)cn2)cn1 [Compound P-0222, 2-[4-[2-[[1-(2-methoxyethyl)pyrazol-4-yl]amino]pyrimidin-5-yl]phenyl]-N-[4-(trifluoromethyl)-2-pyridyl]acetamide]
COc1ncc(NC(=O)Cc2ccc(-c3cnc4[nH]c(C#Cc5cncn5C)cc4c3)cc2)cc1C(F)(F)F [Compound P-0227, N-[6-methoxy-5-(trifluoromethyl)-3-pyridyl]-2-[4-[2-[2-(3-methylimidazol-4-yl)ethynyl]-1H-pyrrolo[2,3-b]pyridin-5-yl]phenyl]acetamide]
Cc1nn(C)cc1Nc1ncc(-c2ccc(CC(=O)Nc3cnc(C)c(C(F)(F)F)c3)cc2)cn1 [Compound P-0228, 2-[4-[2-[(1,3-dimethylpyrazol-4-yl)amino]pyrimidin-5-yl]phenyl]-N-[6-methyl-5-(trifluoromethyl)-3-pyridyl]acetamide]
Cc1ncc(NC(=O)Cc2ccc(-c3cnc(Nc4cnn(C)c4C)nc3)cc2)cc1C(F)(F)F [Compound P-0229, 2-[4-[2-[(1,5-dimethylpyrazol-4-yl)amino]pyrimidin-5-yl]phenyl]-N-[6-methyl-5-(trifluoromethyl)-3-pyridyl]acetamide]
O=C(Cc1ccc(-c2cnc(Nc3cnn(C4CC4)c3)nc2)cc1)Nc1cncc(C(F)(F)F)c1 [Compound P-0231, 2-[4-[2-[(1-cyclopropylpyrazol-4-yl)amino]pyrimidin-5-yl]phenyl]-N-[5-(trifluoromethyl)-3-pyridyl]acetamide]
Cc1ncc(NC(=O)Cc2ccc(-c3cnc(Nc4cnn(C5CC5)c4)nc3)cc2)cc1C(F)(F)F [Compound P-0232, 2-[4-[2-[(1-cyclopropylpyrazol-4-yl)amino]pyrimidin-5-yl]phenyl]-N-[6-methyl-5-(trifluoromethyl)-3-pyridyl]acetamide]
O=C(Cc1ccc(-c2cnc(Nc3cnn(C4CC4)c3)nc2)cc1)Nc1cnc(Cl)c(C(F)(F)F)c1 [Compound P-0233, N-[6-chloro-5-(trifluoromethyl)-3-pyridyl]-2-[4-[2-[(1-cyclopropylpyrazol-4-yl)amino]pyrimidin-5-yl]phenyl]acetamide]
COc1ncc(NC(=O)Cc2ccc(-c3cnc(Nc4cnn(C5CC5)c4)nc3)cc2)cc1C(F)(F)F [Compound P-0234, 2-[4-[2-[(1-cyclopropylpyrazol-4-yl)amino]pyrimidin-5-yl]phenyl]-N-[6-methoxy-5-(trifluoromethyl)-3-pyridyl]acetamide]
O=C(Cc1ccc(-c2cnc(Nc3cnn(C4CC4)c3)nc2)cc1)Nc1ccc(C(F)(F)F)nc1 [Compound P-0235, 2-[4-[2-[(1-cyclopropylpyrazol-4-yl)amino]pyrimidin-5-yl]phenyl]-N-[6-(trifluoromethyl)-3-pyridyl]acetamide]
O=C(Cc1ccc(-c2cnc(Nc3cnn(C4CC4)c3)nc2)cc1)Nc1ccc(C(F)(F)F)cn1 [Compound P-0236, 2-[4-[2-[(1-cyclopropylpyrazol-4-yl)amino]pyrimidin-5-yl]phenyl]-N-[5-(trifluoromethyl)-2-pyridyl]acetamide]
O=C(Cc1ccc(-c2cnc(Nc3cnn(C4CC4)c3)nc2)cc1)Nc1cc(C(F)(F)F)ccn1 [Compound P-0237, 2-[4-[2-[(1-cyclopropylpyrazol-4-yl)amino]pyrimidin-5-yl]phenyl]-N-[4-(trifluoromethyl)-2-pyridyl]acetamide]
O=C(Cc1ccc(-c2cnc(Nc3cnn(C4CC4)c3)nc2)cc1F)Nc1cncc(C(F)(F)F)c1 [Compound P-0238, 2-[4-[2-[(1-cyclopropylpyrazol-4-yl)amino]pyrimidin-5-yl]-2-fluoro-phenyl]-N-[5-(trifluoromethyl)-3-pyridyl]acetamide]
Cc1ncc(NC(=O)Cc2ccc(-c3cnc(Nc4cnn(C5CC5)c4)nc3)cc2F)cc1C(F)(F)F [Compound P-0239, 2-[4-[2-[(1-cyclopropylpyrazol-4-yl)amino]pyrimidin-5-yl]-2-fluoro-phenyl]-N-[6-methyl-5-(trifluoromethyl)-3-pyridyl]acetamide]
O=C(Cc1ccc(-c2cnc(Nc3cnn(C4CC4)c3)nc2)cc1F)Nc1cnc(Cl)c(C(F)(F)F)c1 [Compound P-0240, N-[6-chloro-5-(trifluoromethyl)-3-pyridyl]-2-[4-[2-[(1-cyclopropylpyrazol-4-yl)amino]pyrimidin-5-yl]-2-fluoro-phenyl]acetamide]
COc1ncc(NC(=O)Cc2ccc(-c3cnc(Nc4cnn(C5CC5)c4)nc3)cc2F)cc1C(F)(F)F [Compound P-0241, 2-[4-[2-[(1-cyclopropylpyrazol-4-yl)amino]pyrimidin-5-yl]-2-fluoro-phenyl]-N-[6-methoxy-5-(trifluoromethyl)-3-pyridyl]acetamide]
O=C(Cc1ccc(-c2cnc(Nc3cnn(C4CC4)c3)nc2)cc1F)Nc1ccc(C(F)(F)F)nc1 [Compound P-0242, 2-[4-[2-[(1-cyclopropylpyrazol-4-yl)amino]pyrimidin-5-yl]-2-fluoro-phenyl]-N-[6-(trifluoromethyl)-3-pyridyl]acetamide]
O=C(Cc1ccc(-c2cnc(Nc3cnn(C4CC4)c3)nc2)cc1F)Nc1ccc(C(F)(F)F)cn1 [Compound P-0243, 2-[4-[2-[(1-cyclopropylpyrazol-4-yl)amino]pyrimidin-5-yl]-2-fluoro-phenyl]-N-[5-(trifluoromethyl)-2-pyridyl]acetamide]
O=C(Cc1ccc(-c2cnc(Nc3cnn(C4CC4)c3)nc2)cc1F)Nc1cc(C(F)(F)F)ccn1 [Compound P-0244, 2-[4-[2-[(1-cyclopropylpyrazol-4-yl)amino]pyrimidin-5-yl]-2-fluoro-phenyl]-N-[4-(trifluoromethyl)-2-pyridyl]acetamide]
CCn1cc(Nc2ncc(-c3ccc(CC(=O)Nc4cnc(OC)c(C(F)(F)F)c4)cc3F)cn2)cn1 [Compound P-0246, 2-[4-[2-[(1-ethylpyrazol-4-yl)amino]pyrimidin-5-yl]-3-fluoro-phenyl]-N-[6-methoxy-5-(trifluoromethyl)-3-pyridyl]acetamide]
CCn1cc(Nc2ncc(-c3cc(F)c(CC(=O)Nc4cnc(OC)c(C(F)(F)F)c4)cc3F)cn2)cn1 [Compound P-0247, 2-[4-[2-[(1-ethylpyrazol-4-yl)amino]pyrimidin-5-yl]-2,5-difluoro-phenyl]-N-[6-methoxy-5-(trifluoromethyl)-3-pyridyl]acetamide]
CCn1cc(Nc2ncc(-c3ccc(CC(=O)Nc4cnc(C)c(C(F)(F)F)c4)cc3F)cn2)cn1 [Compound P-0248, 2-[4-[2-[(1-ethylpyrazol-4-yl)amino]pyrimidin-5-yl]-3-fluoro-phenyl]-N-[6-methyl-5-(trifluoromethyl)-3-pyridyl]acetamide]
CCn1cc(Nc2ncc(-c3cc(F)c(CC(=O)Nc4cnc(C)c(C(F)(F)F)c4)cc3F)cn2)cn1 [Compound P-0249, 2-[4-[2-[(1-ethylpyrazol-4-yl)amino]pyrimidin-5-yl]-2,5-difluoro-phenyl]-N-[6-methyl-5-(trifluoromethyl)-3-pyridyl]acetamide]
CCn1cc(Nc2ncc(-c3ccc(CC(=O)Nc4cc(C(F)(F)F)ccn4)cc3)cn2)cn1 [Compound P-0250, 2-[4-[2-[(1-ethylpyrazol-4-yl)amino]pyrimidin-5-yl]phenyl]-N-[4-(trifluoromethyl)-2-pyridyl]acetamide]
CCn1cc(Nc2ncc(-c3ccc(CC(=O)Nc4ccc(C(F)(F)F)cn4)cc3)cn2)cn1 [Compound P-0251, 2-[4-[2-[(1-ethylpyrazol-4-yl)amino]pyrimidin-5-yl]phenyl]-N-[5-(trifluoromethyl)-2-pyridyl]acetamide]
CCn1cc(Nc2ncc(-c3ccc(CC(=O)Nc4ccc(C(F)(F)F)nc4)cc3)cn2)cn1 [Compound P-0252, 2-[4-[2-[(1-ethylpyrazol-4-yl)amino]pyrimidin-5-yl]phenyl]-N-[6-(trifluoromethyl)-3-pyridyl]acetamide]
CCn1cc(Nc2ncc(-c3ccc(CC(=O)Nc4cnc(OC)c(C(F)(F)F)c4)cc3)cn2)cn1 [Compound P-0253, 2-[4-[2-[(1-ethylpyrazol-4-yl)amino]pyrimidin-5-yl]phenyl]-N-[6-methoxy-5-(trifluoromethyl)-3-pyridyl]acetamide]
